Assay results published in patent publication US9980486B2, “Herbicidal quinolines” (Syngenta Participations AG, priority 2014, dated 2018).

Each compound was assayed on Setaria faberi (SETFA) (assay: Experiment B1 glasshouse herbicide test, pre- and post-emergence, percentage damage). Conditions: POST Application (post-emergence, after 8 days cultivation), 1000 g/h, evaluated after 13 days.
Format: in vivo
Method: (§1) Seeds of a variety of test species are sown in standard soil in pots (Lolium perenne (LOLPE), Solanum nigrum (SOLNI), Amaranthus retoflexus (AMARE), Setaria faberi (SETFA), Echinochloa crus-galli (ECHCG), Ipomoea hederacea (IPOHE)). After cultivation for one day (pre-emergence) or after 8 days cultivation (post-emergence) under controlled conditions in a glasshouse (at 24/16° C., day/night; 14 hours light; 65% humidity), the plants are sprayed with an aqueous spray solution derived from the formulation of the technical active ingredient in acetone/water (50:50) solution containing 0.5% Tween 20 (polyoxyethelyene sorbitan monolaurate, CAS RN 9005-64-5). […] The test plants are then grown in a glasshouse under controlled conditions in a glasshouse (at 24/16° C., day/night; 14 hours light; 65% humidity) and watered twice daily. After 13 days for pre and post-emergence, the test is evaluated for the percentage damage caused to the plant. The biological activities are shown in the following table on a five point scale (5=80-100%; 4=60-79%; 3=40-59%; 2=20-39%; 1=0-19%).

Q: With Cc1c(C(=O)Nc2nnnn2C)cc2cccnc2c1-c1ccc(F)cc1 [Compound 1.035] as the compound, how does the “percentage damage caused to the plant, five point scale, SETFA” value (“percentage damage caused … SETFA” for short) read?
A: The value was 5 (5=80-100%).

Q: Which “percentage damage caused … SETFA” value does the source give for Cc1c(C(=O)Nc2nnnn2C)cc2cccnc2c1-c1ccc(Cl)cc1 [Compound 1.036] here?
A: The value was 5 (5=80-100%).

Q: Which “percentage damage caused … SETFA” value does the source give for COc1ccc(-c2c(C)c(C(=O)Nc3nnnn3C)cc3ccc(C)nc23)cc1 [Compound 1.037] here?
A: Its value is 5 (5=80-100%).

Q: Cc1ccc2cc(C(=O)Nc3nnnn3C)c(C)c(-c3ccc(S(C)(=O)=O)cc3)c2n1 [Compound 1.038] was tested. Which “percentage damage caused … SETFA” value did it give?
A: Its value is 5 (5=80-100%).

Same assay, conditions: PRE Application (pre-emergence, after cultivation for one day), 1000 g/h, evaluated after 13 days

Q: Which “percentage damage caused … SETFA” value does the source give for Cc1c(C(=O)Nc2nnnn2C)cc2cccnc2c1-c1ccc(F)cc1 [Compound 1.035] here?
A: The value was 5 (5=80-100%).

Q: Cc1c(C(=O)Nc2nnnn2C)cc2cccnc2c1-c1ccc(Cl)cc1 [Compound 1.036] was tested. Which “percentage damage caused … SETFA” value did it give?
A: Its value is 5 (5=80-100%).

Q: For COc1ccc(-c2c(C)c(C(=O)Nc3nnnn3C)cc3ccc(C)nc23)cc1 [Compound 1.037], which “percentage damage caused … SETFA” value is on record?
A: Its value is 5 (5=80-100%).

Q: Cc1ccc2cc(C(=O)Nc3nnnn3C)c(C)c(-c3ccc(S(C)(=O)=O)cc3)c2n1 [Compound 1.038] was tested. Which “percentage damage caused … SETFA” value did it give?
A: Its value is 5 (5=80-100%).

The compounds below were run on Amaranthus retoflexus (AMARE) in the same assay as above. Conditions: POST Application (post-emergence, after 8 days cultivation), 1000 g/h, evaluated after 13 days.
Format: in vivo
Method: as §1

Q: How did the “percentage damage caused to the plant, five point scale, AMARE” value (from here on “percentage damage caused … AMARE”) turn out when Cc1c(C(=O)Nc2nnnn2C)cc2cccnc2c1-c1ccc(F)cc1 [Compound 1.035] was run?
A: The value was 5 (5=80-100%).

Q: For Cc1c(C(=O)Nc2nnnn2C)cc2cccnc2c1-c1ccc(Cl)cc1 [Compound 1.036], which “percentage damage caused … AMARE” value is on record?
A: Its value is 5 (5=80-100%).

Q: COc1ccc(-c2c(C)c(C(=O)Nc3nnnn3C)cc3ccc(C)nc23)cc1 [Compound 1.037] was tested. Which “percentage damage caused … AMARE” value did it give?
A: The value was 5 (5=80-100%).

Q: Which “percentage damage caused … AMARE” value does the source give for Cc1ccc2cc(C(=O)Nc3nnnn3C)c(C)c(-c3ccc(S(C)(=O)=O)cc3)c2n1 [Compound 1.038] here?
A: Its value is 5 (5=80-100%).

Same assay, conditions: PRE Application (pre-emergence, after cultivation for one day), 1000 g/h, evaluated after 13 days

Q: Which “percentage damage caused … AMARE” value does the source give for Cc1c(C(=O)Nc2nnnn2C)cc2cccnc2c1-c1ccc(F)cc1 [Compound 1.035] here?
A: Its value is 5 (5=80-100%).

Q: How did the “percentage damage caused … AMARE” value turn out when Cc1c(C(=O)Nc2nnnn2C)cc2cccnc2c1-c1ccc(Cl)cc1 [Compound 1.036] was run?
A: The value was 5 (5=80-100%).

Q: For COc1ccc(-c2c(C)c(C(=O)Nc3nnnn3C)cc3ccc(C)nc23)cc1 [Compound 1.037], which “percentage damage caused … AMARE” value is on record?
A: Its value is 5 (5=80-100%).

Q: Which “percentage damage caused … AMARE” value does the source give for Cc1ccc2cc(C(=O)Nc3nnnn3C)c(C)c(-c3ccc(S(C)(=O)=O)cc3)c2n1 [Compound 1.038] here?
A: Its value is 5 (5=80-100%).

Each compound was assayed on Echinochloa crus-galli (ECHCG) in the same assay as above. Conditions: POST Application (post-emergence, after 8 days cultivation), 1000 g/h, evaluated after 13 days.
Format: in vivo
Method: as §1

Q: Cc1c(C(=O)Nc2nnnn2C)cc2cccnc2c1-c1ccc(F)cc1 [Compound 1.035] was tested. Which “percentage damage caused to the plant, five point scale, ECHCG” value (from here on “percentage damage caused … ECHCG”) did it give?
A: The value was 5 (5=80-100%).

Q: With Cc1c(C(=O)Nc2nnnn2C)cc2cccnc2c1-c1ccc(Cl)cc1 [Compound 1.036] as the compound, how does the “percentage damage caused … ECHCG” value read?
A: Its value is 5 (5=80-100%).

Q: COc1ccc(-c2c(C)c(C(=O)Nc3nnnn3C)cc3ccc(C)nc23)cc1 [Compound 1.037] was tested. Which “percentage damage caused … ECHCG” value did it give?
A: The value was 5 (5=80-100%).

Q: Which “percentage damage caused … ECHCG” value does the source give for Cc1ccc2cc(C(=O)Nc3nnnn3C)c(C)c(-c3ccc(S(C)(=O)=O)cc3)c2n1 [Compound 1.038] here?
A: The value was 5 (5=80-100%).

Same assay, conditions: PRE Application (pre-emergence, after cultivation for one day), 1000 g/h, evaluated after 13 days

Q: With Cc1c(C(=O)Nc2nnnn2C)cc2cccnc2c1-c1ccc(F)cc1 [Compound 1.035] as the compound, how does the “percentage damage caused … ECHCG” value read?
A: The value was 5 (5=80-100%).

Q: Which “percentage damage caused … ECHCG” value does the source give for Cc1c(C(=O)Nc2nnnn2C)cc2cccnc2c1-c1ccc(Cl)cc1 [Compound 1.036] here?
A: Its value is 5 (5=80-100%).

Q: How did the “percentage damage caused … ECHCG” value turn out when COc1ccc(-c2c(C)c(C(=O)Nc3nnnn3C)cc3ccc(C)nc23)cc1 [Compound 1.037] was run?
A: Its value is 5 (5=80-100%).

Q: With Cc1ccc2cc(C(=O)Nc3nnnn3C)c(C)c(-c3ccc(S(C)(=O)=O)cc3)c2n1 [Compound 1.038] as the compound, how does the “percentage damage caused … ECHCG” value read?
A: The value was 5 (5=80-100%).

The compounds below were run on Solanum nigrum (SOLNI) in the same assay as above. Conditions: POST Application (post-emergence, after 8 days cultivation), 1000 g/h, evaluated after 13 days.
Format: in vivo
Method: as §1

Q: How did the “percentage damage caused to the plant, five point scale, SOLNI” value (from here on “percentage damage caused … SOLNI”) turn out when Cc1c(C(=O)Nc2nnnn2C)cc2cccnc2c1-c1ccc(F)cc1 [Compound 1.035] was run?
A: Its value is 5 (5=80-100%).

Q: Which “percentage damage caused … SOLNI” value does the source give for Cc1c(C(=O)Nc2nnnn2C)cc2cccnc2c1-c1ccc(Cl)cc1 [Compound 1.036] here?
A: Its value is 5 (5=80-100%).

Q: How did the “percentage damage caused … SOLNI” value turn out when COc1ccc(-c2c(C)c(C(=O)Nc3nnnn3C)cc3ccc(C)nc23)cc1 [Compound 1.037] was run?
A: The value was 5 (5=80-100%).

Q: Cc1ccc2cc(C(=O)Nc3nnnn3C)c(C)c(-c3ccc(S(C)(=O)=O)cc3)c2n1 [Compound 1.038] was tested. Which “percentage damage caused … SOLNI” value did it give?
A: Its value is 5 (5=80-100%).

Same assay, conditions: PRE Application (pre-emergence, after cultivation for one day), 1000 g/h, evaluated after 13 days

Q: Cc1c(C(=O)Nc2nnnn2C)cc2cccnc2c1-c1ccc(F)cc1 [Compound 1.035] was tested. Which “percentage damage caused … SOLNI” value did it give?
A: The value was 5 (5=80-100%).

Q: For Cc1c(C(=O)Nc2nnnn2C)cc2cccnc2c1-c1ccc(Cl)cc1 [Compound 1.036], which “percentage damage caused … SOLNI” value is on record?
A: The value was 5 (5=80-100%).

Q: Which “percentage damage caused … SOLNI” value does the source give for COc1ccc(-c2c(C)c(C(=O)Nc3nnnn3C)cc3ccc(C)nc23)cc1 [Compound 1.037] here?
A: Its value is 5 (5=80-100%).

Q: With Cc1ccc2cc(C(=O)Nc3nnnn3C)c(C)c(-c3ccc(S(C)(=O)=O)cc3)c2n1 [Compound 1.038] as the compound, how does the “percentage damage caused … SOLNI” value read?
A: The value was 5 (5=80-100%).

Each compound was assayed on Ipomoea hederacea (IPOHE) in the same assay as above. Conditions: POST Application (post-emergence, after 8 days cultivation), 1000 g/h, evaluated after 13 days.
Format: in vivo
Method: as §1

Q: Cc1c(C(=O)Nc2nnnn2C)cc2cccnc2c1-c1ccc(F)cc1 [Compound 1.035] was tested. Which “percentage damage caused to the plant, five point scale, IPOHE” value (from here on “percentage damage caused … IPOHE”) did it give?
A: The value was 5 (5=80-100%).

Q: For Cc1c(C(=O)Nc2nnnn2C)cc2cccnc2c1-c1ccc(Cl)cc1 [Compound 1.036], which “percentage damage caused … IPOHE” value is on record?
A: Its value is 5 (5=80-100%).

Q: COc1ccc(-c2c(C)c(C(=O)Nc3nnnn3C)cc3ccc(C)nc23)cc1 [Compound 1.037] was tested. Which “percentage damage caused … IPOHE” value did it give?
A: The value was 5 (5=80-100%).

Q: Cc1ccc2cc(C(=O)Nc3nnnn3C)c(C)c(-c3ccc(S(C)(=O)=O)cc3)c2n1 [Compound 1.038] was tested. Which “percentage damage caused … IPOHE” value did it give?
A: The value was 5 (5=80-100%).

Same assay, conditions: PRE Application (pre-emergence, after cultivation for one day), 1000 g/h, evaluated after 13 days

Q: With Cc1c(C(=O)Nc2nnnn2C)cc2cccnc2c1-c1ccc(F)cc1 [Compound 1.035] as the compound, how does the “percentage damage caused … IPOHE” value read?
A: The value was 5 (5=80-100%).

Q: For Cc1c(C(=O)Nc2nnnn2C)cc2cccnc2c1-c1ccc(Cl)cc1 [Compound 1.036], which “percentage damage caused … IPOHE” value is on record?
A: Its value is 5 (5=80-100%).

Q: COc1ccc(-c2c(C)c(C(=O)Nc3nnnn3C)cc3ccc(C)nc23)cc1 [Compound 1.037] was tested. Which “percentage damage caused … IPOHE” value did it give?
A: Its value is 4 (4=60-79%).

Q: Cc1ccc2cc(C(=O)Nc3nnnn3C)c(C)c(-c3ccc(S(C)(=O)=O)cc3)c2n1 [Compound 1.038] was tested. Which “percentage damage caused … IPOHE” value did it give?
A: The value was 4 (4=60-79%).

Each compound was assayed on Lolium perenne (LOLPE) in the same assay as above. Conditions: POST Application (post-emergence, after 8 days cultivation), 1000 g/h, evaluated after 13 days.
Format: in vivo
Method: as §1

Q: With Cc1c(C(=O)Nc2nnnn2C)cc2cccnc2c1-c1ccc(F)cc1 [Compound 1.035] as the compound, how does the “percentage damage caused to the plant, five point scale, LOLPE” value (from here on “percentage damage caused … LOLPE”) read?
A: Its value is 4 (4=60-79%).

Q: For Cc1c(C(=O)Nc2nnnn2C)cc2cccnc2c1-c1ccc(Cl)cc1 [Compound 1.036], which “percentage damage caused … LOLPE” value is on record?
A: The value was 4 (4=60-79%).

Q: For COc1ccc(-c2c(C)c(C(=O)Nc3nnnn3C)cc3ccc(C)nc23)cc1 [Compound 1.037], which “percentage damage caused … LOLPE” value is on record?
A: The value was 5 (5=80-100%).

Q: With Cc1ccc2cc(C(=O)Nc3nnnn3C)c(C)c(-c3ccc(S(C)(=O)=O)cc3)c2n1 [Compound 1.038] as the compound, how does the “percentage damage caused … LOLPE” value read?
A: Its value is 5 (5=80-100%).

Same assay, conditions: PRE Application (pre-emergence, after cultivation for one day), 1000 g/h, evaluated after 13 days

Q: For Cc1c(C(=O)Nc2nnnn2C)cc2cccnc2c1-c1ccc(F)cc1 [Compound 1.035], which “percentage damage caused … LOLPE” value is on record?
A: Its value is 5 (5=80-100%).

Q: With Cc1c(C(=O)Nc2nnnn2C)cc2cccnc2c1-c1ccc(Cl)cc1 [Compound 1.036] as the compound, how does the “percentage damage caused … LOLPE” value read?
A: The value was 4 (4=60-79%).

Q: How did the “percentage damage caused … LOLPE” value turn out when COc1ccc(-c2c(C)c(C(=O)Nc3nnnn3C)cc3ccc(C)nc23)cc1 [Compound 1.037] was run?
A: Its value is 3 (3=40-59%).

Q: Which “percentage damage caused … LOLPE” value does the source give for Cc1ccc2cc(C(=O)Nc3nnnn3C)c(C)c(-c3ccc(S(C)(=O)=O)cc3)c2n1 [Compound 1.038] here?
A: Its value is 4 (4=60-79%).
